Data taken from patent publication US20250161282A1, “PHARMACEUTICAL PYRIDYL COMPOSITIONS FOR TREATING AND PREVENTING DELAYED GRAFT FUNCTION” (Unicycive Therapeutics, Inc., priority 2023, published 2025).
Counter-ions that a name gives are not always drawn. Like-named read-outs stand apart in the source and are kept apart here.

Tests used:
[1] = Phase I study Part 2, multiple ascending doses (MAD), BID oral fasted; format: in vivo, human; conditions: for dose-proportionality of exposure from 40 mg to 80 mg (Cmax and AUC(0-tau)): Day 1, analyte = labelled substance; for Tmax at 5 days: read-out: median Tmax
Text: Part 2 of the study was a double-blind, randomized, placebo-controlled, MAD study.

[2] = Phase I study Part 1, single ascending doses (SAD), oral fasted
Procedure: (§1) In this Phase I study, the safety and tolerability of single ascending doses (SAD) of Compound 8 was administered to male and female subjects. The study was a single centre, double-blinded, placebo-controlled, randomized single ascending doses (SAD) and multiple ascending doses (MAD) study in healthy male and female subjects of non-childbearing potential.
(§2) Part 1 was a double-blinded, randomized, placebo-controlled, SAD study, including approximately 32 subjects in 4 cohorts of 8 subjects each (randomized to a ratio of 6 active and 2 placebo per cohort). The subjects received the regimens presented in Table A. The route of administration was oral and fasted.
(§3) Subjects received a single dose of Compound 8 Capsule or placebo in the morning following an overnight fast. For Regimen E, Period 2, cohort SAD 3 were readmitted to the clinical unit. There was a minimum 7-day washout between dosing occasions for Regimen C and Regimen E. Blood samples were collected at regular intervals for safety and PK analysis from Day −1 to discharge from the clinical unit.
(§4) In Part 1 of the study, subjects received a single oral doses of Compound 8 Capsule or placebo on one occasion in the fasted state, except for subjects in Cohort SAD 3 who received two single doses on two separate occasions. Doses ranged from 10 mg to 160 mg. In Part 2 of the study, subjects received single doses of Compound 8 Capsule or placebo BID for 4 consecutive days and once on Day 5 in the fasted state. Doses ranged from 40 mg to 80 mg.

[3] = test system: unilateral IR model of AKI in rats; assay: unilateral IR model of AKI in rats (kidney functional markers, tubular injury); format: in vivo, male SD (Sprague Dawley) rats; conditions: for BUN vs IR vehicle: p<0.0001 (FIG. 4); for serum creatinine: p<0.0001 (FIG. 9A)
Procedure: A total of […] male SD (Sprague Dawley) rats were divided into 10 groups each with 10 rats/group as detailed in the Table 3. The ischemia was induced in the left kidney using a small clamp (Sugita standard aneurysm clip holding force 145 g) that was placed on the renal vascular pedicle for 30 min for all groups except SHAM group.
All rats were housed in metabolic cages for the collection of 24-hour urine samples for ACR, NGAL and β2-MG levels. After 24 hours, rats were anaesthetized, and blood samples were collected for sCre, and BUN levels. The left kidney was collected and processed for histology for tubular injury scores.
A total of additional 10 male SD (Sprague Dawley) rats were used along with the Group 1 (No IR) and Group 2 (IR); and other Groups listed in the Tabel 3; and conducted the study. The ischemia was induced in the left kidney of those additional 10 rats using a small clamp (Sugita standard aneurysm clip holding force 145 g) that was placed on the renal vascular pedicle for 30 min.
Nicorandil at 10 mg/kg, was administered 30 minutes prior to the induction of ischemia via intraperitoneal (ip) administration to the additional 10 rats along with the groups listed in Table 3. All additional 10 rats were housed in metabolic cages for the collection of 24-hour urine samples for ACR. After 24 hours, rats were anaesthetized, and blood samples were collected for sCre. The left kidney was collected and processed for histology for tubular injury scores along with the other groups as detailed in Table 3.

[4] = nicorandil 10 mg; cited from earlier work
[5] = test system: contrast induced nephropathy; conditions: 10 mg BID dosing; cited from earlier work
[6] = clinical; conditions: both, human, plasma, oral
Procedure: as §1, §2, §3, §4

[7] = test system: rat bilateral ischemia/reperfusion (IR) model; assay: rat bilateral ischemia/reperfusion (IR) model, oral Compound 8 (iodide salt); format: in vivo, male Sprague Dawley rats; conditions: for urine β2-MG levels and content compared with Group 2 (IR): iodide salt
Text: Animal models of IRI (ischemia reperfusion injury), DGF (delayed graft function), and AKI (acute kidney injury) mimic many features seen in human kidney allografts. […] In 2011, the FDA held a workshop to review the current state of knowledge related to the effects of IRI on outcomes in kidney transplantation in animal models. The FDA stated animal models have implicated maladaptive host responses to […]. The maladaptive responses are changes in hemodynamics, decrease in oxygen tension, mitochondrial dysfunction, tubular injury, inflammation, etc.
In the rat bilateral IR model, the bilateral renal pedicle was clamped for 45 min for ischemia and then the clamp is removed to allow reperfusion. […] Urine β2-MG levels and content of Group 2 were higher than those in Group 1. Compared with Group 2, Groups 3 and 4 had lower urine β2-MG levels and content (n=10/group) (FIG. 1; […] at 10 mg/kg dose and p<0.01 at 20 mg/kg dose—as per one-way ANOVA multiple comparison test).

SMILES: O=C(NCCO[N+](=O)[O-])c1cccnc1 [Nicorandil, reference compound]
- dose-proportionality of exposure from 40 mg to 80 mg (Cmax and AUC(0-tau)) [1]: proportional increase
- dose proportionality of peak (20-160 mg) and total (40-160 mg) exposure ([2]; nicorandil after Compound 8, Cmax and AUC(0-last)): slightly greater than proportional
- proximal tubules, histological images ([3]; 10 mg/kg ip (FIG. 10D)): most all proximal tubules are healthy
- serum creatinine compared to Group 2 ([3]; 10 mg/kg ip single dose 30 min prior to ischemia, p<0.0001 (FIG. 10A)): significantly reduced
- ACR compared to Group 2 ([3]; 10 mg/kg ip single dose 30 min prior to ischemia, p<0.0001 (FIG. 10B)): significantly reduced
- tubular injury/damage compared to Group 2 ([3]; 10 mg/kg ip single dose 30 min prior to ischemia, p<0.0001 (FIG. 10C)): significantly reduced
- AUC [4]: 101 (range of 122-323) hour·ng/m
- Cmax [4]: 107 (range of 44-148) ng/mL
- Tmax [4]: 0.43 (range 0.25-0.75) hours
- activity in contrast induced nephropathy [5]: show activity

SMILES: C[C@@H](NC(=O)OC[n+]1cccc(C(=O)NCCO[N+](=O)[O-])c1)C1CCCCC1 [Compound 8, nitrate salt]
- serum creatinine vs IR vehicle ([3]; 5 mg/kg/iv single dose 30 min prior to ischemia, p<0.0001 (FIG. 2C)): phenomenally reduced
- BUN vs IR vehicle ([3]; 5 mg/kg/iv single dose 30 min prior to ischemia): phenomenally reduced
- urinary ACR vs IR vehicle ([3]; 5 mg/kg/iv single dose 30 min prior to ischemia, p<0.001 (FIG. 3C)): phenomenally reduced
- serum creatinine vs IR vehicle ([3]; 10 mg/kg/iv single dose 30 min prior to ischemia, p<0.0001 (FIG. 2C)): phenomenally reduced
- BUN vs IR vehicle ([3]; 10 mg/kg/iv single dose 30 min prior to ischemia): phenomenally reduced
- urinary ACR vs IR vehicle ([3]; 10 mg/kg/iv single dose 30 min prior to ischemia, p<0.001 (FIG. 3C)): phenomenally reduced
- urinary ACR vs IR vehicle ([3]; 25 mg/kg/ip single dose 30 min prior to ischemia, p<0.01 (FIG. 3B)): significantly reduced
- urinary ACR vs IR vehicle ([3]; 50 mg/kg/ip single dose 30 min prior to ischemia, p<0.001 (FIG. 3B)): significantly reduced
- serum creatinine vs IR vehicle ([3]; 50 mg/kg/ip single dose 30 min prior to ischemia, p<0.05 (FIG. 2B)): significantly reduced
- urinary ACR vs IR vehicle ([3]; 50 mg/kg/po single dose 30 min prior to ischemia, p<0.01 (FIG. 3A)): significantly reduced
- urinary ACR vs IR vehicle ([3]; 100 mg/kg/po single dose 30 min prior to ischemia, p<0.001 (FIG. 3A)): significantly reduced
- serum creatinine vs IR vehicle ([3]; 100 mg/kg/po single dose 30 min prior to ischemia, p<0.05 (FIG. 2A)): significantly reduced
- proximal convoluted tubular injury scores ([3]; intraperitoneal high dose 50 mg/kg, preventive, p<0.0001 (FIG. 6B)): effective in lowering
- tubular injury marker β2-MG (urinary) ([3]; intraperitoneal low dose 25 mg/kg, preventive, p<0.01 (FIG. 8)): effective in lowering
- tubular injury/damage, histological images ([3]; intraperitoneal route (FIG. 7D)): moderately ameliorated
- tubular injury marker NGAL (urinary) ([3]; intravenous high dose 10 mg/kg, preventive, p<0.0001 (FIG. 5B)): robustly effective in lowering
- proximal convoluted tubular injury scores ([3]; intravenous high dose 10 mg/kg, preventive, p<0.0001 (FIG. 6C)): robustly effective in lowering
- tubular injury marker NGAL (urinary) ([3]; intravenous low dose 5 mg/kg, preventive, p<0.0001 (FIG. 5B)): robustly effective in lowering
- proximal convoluted tubular injury scores ([3]; intravenous low dose 5 mg/kg, preventive, p<0.0001 (FIG. 6C)): robustly effective in lowering
- tubular injury/damage, histology ([3]; intravenous route, low and high doses (FIG. 6C, 7E)): markedly ameliorated
- tubular injury marker NGAL (urinary) ([3]; oral high dose 100 mg/kg, preventive, p<0.0001 (FIG. 5A)): effective in lowering
- proximal convoluted tubular injury scores/damage ([3]; oral high dose 100 mg/kg, preventive, p<0.0001 (FIG. 6A)): effective in lowering
- tubular injury marker NGAL (urinary) ([3]; oral low dose 50 mg/kg, preventive, p<0.0001 (FIG. 5A)): effective in lowering
- tubular injury/damage, histological images ([3]; oral route (FIG. 7C)): moderately ameliorated
- BUN ([3]; therapeutic regimen, 10 mg/kg/iv at 1 hour, p<0.001 (FIG. 9B)): phenomenally reduced
- BUN ([3]; therapeutic regimen, 10 mg/kg/iv at 4 hours, p<0.0001 (FIG. 9B)): phenomenally reduced
- urinary NGAL ([3]; therapeutic regimen, 10 mg/kg/iv at 4 hours, p<0.01 (FIG. 9C)): phenomenally reduced
- serum creatinine ([3]; therapeutic regimen, 10 mg/kg/iv single dose at 1 hour after ischemia): phenomenally reduced
- serum creatinine ([3]; therapeutic regimen, 10 mg/kg/iv single dose at 4 hours after ischemia): phenomenally reduced

SMILES: CC(NC(=O)OC[n+]1cccc(C(=O)NCCO[N+](=O)[O-])c1)C1CCCCC1 (stereo in doubt) [Compound 8, (S)-1-(((1-cyclohexylethylcarbamoyl)oxy)methyl)-3-((2-(nitroxy)ethyl)carbamoyl)pyridine-1-ium iodide]
- Tmax [6]: 0.5 to 1.5 h
- half-life [6]: 44.4 to 155 min
- AUC(0-t) ([6]; 10 mg): > 0.127 ng·h/mL
- Cmax ([6]; 10 mg): > 1.01 ng/mL
- dose-proportionality of exposure from 40 mg to 80 mg (Cmax and AUC(0-tau)) [1]: approximate proportional increase
- half-life at 5 day ([1]; both sexes, human, plasma, oral, Day 5, both doses, reliable in 3 out of the 10 profiles, read-out: individual plasma half-life): 66.6 to 85.2 min
- Tmax at 5 days ([1]; both sexes, human, plasma, multiple oral doses 40 mg for 5 days): 1.5 h
- Tmax at 5 days ([1]; both sexes, human, plasma, multiple oral doses 80 mg for 5 days): 1 h
- dose proportionality of peak and overall exposure (Cmax, AUC(0-last)) ([2]; 10 mg to 160 mg dose range): sub-proportional increase
- physical or behavioral abnormalities vs vehicle ([7]; 10 and 20 mg/kg oral): no physical or behavioral abnormalities
- significant changes in body weight vs vehicle ([7]; 10 and 20 mg/kg oral): no
- uACR vs vehicle ([7]; 10 and 20 mg/kg oral): no significant difference
- urine albumin concentration or total amount vs vehicle ([7]; 10 and 20 mg/kg oral): no significant difference
- urine creatinine concentration or total amount vs vehicle ([7]; 10 and 20 mg/kg oral): no significant difference
- creatinine marker of kidney function ([7]; doses up to 20 mg/kg oral): did not appear to have a significant impact
- histological markers of kidney function (histological scores for tubular injury) ([7]; doses up to 20 mg/kg oral): did not appear to have a significant impact
- urine β2-MG levels and content compared with Group 2 (IR) ([7]; 10 mg/kg oral 1 hour prior to ischemia, p<0.5 (FIG. 1)): lower
- urine β2-MG levels and content compared with Group 2 (IR) ([7]; 20 mg/kg oral 1 hour prior to ischemia, p<0.01 (FIG. 1)): lower

SMILES: CC(N)C1CCCCC1 (stereo not shown) [1-cyclohexylethylamine]
- subjects with quantifiable concentrations ([1]; multiple oral dosing 40 mg or 80 mg Compound 8 for 5 days): all subjects
- subjects with quantifiable concentrations ([1]; single dosing of Compound 8 Capsule 80 mg): all subjects
- PK profiles ([2]; after Compound 8 10 mg, 20 mg and 40 mg dose levels): entirely BLQ
- subjects with quantifiable concentrations ([2]; after Compound 8 160 mg): all subjects
